Reference: patent publication US20100279930A1, “HUMAN PANCREATIC POLYPEPTIDE (HPP) ANALOGUES AND THEIR EFFECTS ON FEEDING BEHAVIOUR” (priority 2007, published 2010)
No end group written: not given here.

How the values were obtained:
Y5 receptor = biological target: T1, Y5 receptor (Homo sapiens, UniProt Q15761); details: cited from earlier work
T1 sequence (Q15761 1-445): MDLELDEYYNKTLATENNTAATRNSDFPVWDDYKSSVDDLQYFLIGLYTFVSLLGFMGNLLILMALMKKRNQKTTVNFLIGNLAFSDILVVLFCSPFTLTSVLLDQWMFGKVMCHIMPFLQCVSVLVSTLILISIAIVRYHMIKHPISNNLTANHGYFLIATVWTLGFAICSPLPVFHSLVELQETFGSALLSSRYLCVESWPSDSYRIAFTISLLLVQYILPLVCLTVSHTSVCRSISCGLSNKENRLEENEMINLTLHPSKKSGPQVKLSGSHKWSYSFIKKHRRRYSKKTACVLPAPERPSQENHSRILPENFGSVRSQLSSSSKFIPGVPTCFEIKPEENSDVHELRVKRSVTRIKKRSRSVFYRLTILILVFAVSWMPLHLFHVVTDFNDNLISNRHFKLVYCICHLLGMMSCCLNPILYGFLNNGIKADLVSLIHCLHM

[1] = injected intracerebroventricularly; cited from earlier work
Male C57BL/6 mice = assay: In vivo food intake experiments in mice (half-life in the blood judged from appetite suppression); set-up: species or system mouse; details: comparator native human PP; judged from food intake reduction in mice (4-8 h, 0-24 h, 4:1 or 24:1 ratio)
Method: In Vivo Food Intake Experiments
Male C57BL/6 mice (20-30 g) were used for all mouse experiments. Mice were individually housed in IVC cages. Animals were randomized by weight and fasted overnight for 16 hrs before intraperitoneal injection at 9 am. All peptide solutions were prepared freshly the morning of the study and injected as 100 ul. Food intake was measured at 1, 2, 3, 4, 6, 8 and 24 hours post injection. The peptide was dosed at 30 nmol/kg, 50 nmol/kg, 100 nmol/kg, 120 nmol/kg, 150 nmol/kg, 300 nmol/kg, 600 nmol/kg or 1000 nmol/kg depending on the activity. In each case, a control of saline and a control of unmodified human Pancreatic Polypeptide was carried out. All statistics are calculated using a one-way ANOVA with Dunnett's post-test or one-way ANOVA with Bonferroni post-test.
A control of saline was used.
FIG. 2 and in the comparative graph of FIG. 3. […] It is hypothesized that that is as a possible result of stronger activity at the receptor and longer activity.
The mouse is a good model for degradation rates in humans, irrespective of the fact that the receptors for PP in mice are different from the human receptor.

human Y4 receptor = human Y4 receptor (Homo sapiens, UniProt P50391); assay: Human Y Receptor-4 Displacement Assay; details: for binding to the Y4 receptor compared with code 6672: comparator compound of SEQ ID NO:72 (code 6672)
Source text: Human Y Receptor-4 Displacement Assay:
The principle of the displacement assay is a fixed quantity of radiolabeled ligand competes with varying doses of a ‘cold’ (non-labelled) ligand for a limited number of receptor binding sites, enabling quantification of the affinity of the cold ligand to the receptor.
The cDNA clone was transformed into competent E.coli so a larger preparation of DNA could be produced which was transfected into HEK-293T cells. Using antibiotics, cells expressing the transfected cDNA were selected for, and those cells containing the receptor plasmid were scaled up for a cell membrane preparation. Cells were harvested from culture flasks by scraping, and then homogenized and the membrane separated from other cellular material by differential centrifugation.
For the displacement assay all reagents are prepared in displacement assay buffer (25 mM HEPES pH 7.4, 2 mM MgCl2, 4 mM CaCl2 1% BSA, 4 mM) containing protease inhibitors (2 mM phenylmethanesulphonylfluoride, 0.5 mM diprotin A and 0.5 mM phosphoramidon). One thousand counts/sec/tube ^I125PP (iodinated by the direct iodogen method) is used as the radiolabeled peptide, and the competing peptide is tested at varying concentrations between 10 uM and 0.02 pM, with each concentration tested in a minimum of duplicate. To each assay tube a volume of the prepared membrane, enough for total counts (where no competing peptide is present) of 10000-15000 counts/240 second is added. Reagents are added in the following order: buffer, label competing peptide and cell membrane, with a total volume is 500 μl.
The assay is incubated at room temperature for 90 minutes before the receptor-^125PP complex is separated from free label by centrifugation at 15600 g for 3 minutes. The supernatant is removed and discarded and the pellet resuspended and washed with 500 μl fresh assay buffer and re-centrifuged. After centrifugation and removal of supernatant the radioactivity of the pellet was measured for 240 seconds using a γ-counter. Specific binding is calculated as the difference between the amount of ^125I-PP bound in the absence (total) and presence (non-specific) of unlabelled peptide. From the binding data, an IC50 for the competing peptide is calculated. Each peptide is tested on a minimum of two separate occasions.

healthy volunteers = details: cited from earlier work
[2] = test system: children with Prader-Willi syndrome; details: 100 pmol/kg/h for 90 minutes; cited from earlier work
mice = details: peripheral administration; cited from earlier work

human Y4 receptor, sequence (P50391 whole entry): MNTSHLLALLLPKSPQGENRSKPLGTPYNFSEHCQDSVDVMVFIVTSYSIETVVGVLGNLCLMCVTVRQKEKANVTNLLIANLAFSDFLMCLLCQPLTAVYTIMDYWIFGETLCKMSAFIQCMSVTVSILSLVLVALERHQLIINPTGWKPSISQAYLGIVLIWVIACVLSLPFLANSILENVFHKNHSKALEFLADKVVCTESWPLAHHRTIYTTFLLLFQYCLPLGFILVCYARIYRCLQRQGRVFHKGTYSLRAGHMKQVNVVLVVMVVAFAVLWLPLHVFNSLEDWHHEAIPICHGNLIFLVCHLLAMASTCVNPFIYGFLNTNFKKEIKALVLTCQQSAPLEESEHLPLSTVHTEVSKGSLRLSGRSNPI

## 2-36[K^4, RYYSA^19-23]PP
Y5 receptor
  affinity to the Y5-receptor: strong affinity
[1]
  effect on food intake: strong stimulatory effect on food intake

## 6435 (KPLEPVYPGDNATPEQMAQYAADLRRYINMLTRPRY) [compound 6435]
Male C57BL/6 mice
  half-life in the blood compared with native human PP: longer half-life

## 6674 (KPLEPVYPGDNATPEELNRYYASLRRYINMLTRPRY) [compound 6674]
Human Y4 receptor
  binding to the Y4 receptor compared with code 6672: stronger binders

## 6675 (KPLEPVYPGDNATPEELNRYYASLRRYINMLTRPRY) [compound 6675]
Human Y4 receptor
  binding to the Y4 receptor compared with code 6672: stronger binders

## 7215 (AAPLEPVYPGDNATPEQMAQYAAALRRYINKLTRPRY) [compound 7215]
Human Y4 receptor; comparator SEQ ID NO:167 (code 7214)
  binding at the Y4 receptor compared with code 7214: still further better binding at the Y4 receptor

## 7218 (AAPLEPVYPGDNATPEQMAQYAADLRRYINKLTRPRY) [compound 7218]
Human Y4 receptor; comparators SEQ ID NO:9 (Ala 0, code 6433) and SEQ ID NO:281 (Lys 30, code 4055855)
  binding to the Y4 receptor compared with codes 6433 and 4055855: binds the Y4 receptor better

## 4059668 (GAPLEPHFPGDNATPEEMAKYAAELRRYINKLTRPRY; synthetic hPP analogue peptide) [compound 4059668]
Male C57BL/6 mice
  half-life in the blood compared with native human PP: longer half-life

## Ala Pro Leu Glu Pro Val Tyr Pro Gly Asp Asn Ala Thr Pro Glu Gln Met Ala Gln Tyr Ala Ala Asp Leu Arg Arg Tyr Ile Asn Met Leu Thr Arg Pro Arg Tyr NH2 [native human PP]
Healthy volunteers; infusion 5 pmol/kg/min (300 pmol/kg/h) for 90 minutes
  reduction in energy intake: 11%
Healthy volunteers; infusion 10 pmol/kg/min (600 pmol/kg/h) for 90 minutes
  effect on appetite and food intake: reduce appetite and food intake
Healthy volunteers; infusion 10 pmol/kg/min for 90 minutes
  decrease in 24 hour cumulative energy intake: 25%
[2]
  effect on appetite: no effect on appetite

## [K^4]PP
Y5 receptor
  affinity to the Y5-receptor: strong affinity
[1]
  effect on food intake: strong stimulatory effect on food intake

## [RYYSA^19-23]PP
Y5 receptor
  affinity to the Y5-receptor: strong affinity
[1]
  effect on food intake: strong stimulatory effect on food intake

## mouse PP: mouse Pancreatic Polypeptide, literature (APLEPMYPGDYATPEQMAQYETQLRRYINTLTRPRY; ends and bridges not checked; UniProt P10601 30-65, looked up)
mice
  effect on energy balance, food intake and energy expenditure: induce a negative energy balance by decreasing food intake and stimulating energy expenditure
